The record followed here is ChEMBL document CHEMBL3046959, “Influence of Absolute Configuration of Indanofan on Herbicidal Activity” (2001).

Active and inactive are the calls of the source. No cut-off for these calls is given here.

This experiment relates to Echinochloa crus-galli. Briefly: Herbicidal activity against 2.5 leaf stage of Echinochloa crus-galli (barnyard grass) after 2 weeks under greenhouse condition by pot test. The experiment is classed as functional.
As to `CCC1(CC2(c3cccc(Cl)c3)CO2)C(=O)c2ccccc2C1=O` (racemic), the ED90 entry was “inactive”. In turn, `CCC1(CC2(c3cccc(Cl)c3)CO2)C(=O)c2ccccc2C1=O` (single isomer, unassigned; (+)) [(RS)-INDANOFAN] displayed an ED90 of 0.0254 KgAi/ha. With `CCC1(CC2(c3cccc(Cl)c3)CO2)C(=O)c2ccccc2C1=O` (single isomer, unassigned; (-)) [(RS)-INDANOFAN], the ED90 was 0.0524 KgAi/ha.
